The IC50 is the concentration that gives 50% inhibition. A lower IC50 goes with greater potency in that assay. By pIC50 is commonly meant −log10 of the IC50, conventionally taken in molar units.

Experimental findings from ChEMBL document CHEMBL1128648, “The enantioselective synthesis and antiinflammatory activity of novel aryl-sphingolipid PKC inhibitors” (Bioorg Med Chem Lett, 1995) are described below.

pIC50: −log10 of the molar value.

One assay concerns the target Protein kinase C (PKC). The assay is described as follows: Inhibition of Protein kinase C isolated from rat brain.
Details: not given
As for `CC(=O)O.CCCCCCCCCCC#Cc1ccc([C@@H](O)[C@@H](N)CO)s1`, the concentration for half-maximal inhibition (IC50) was 21300 nM.
On the same count and under the same terms, for `CCCCCCCCCCC#Cc1csc([C@@H](O)[C@@H](N)CO)c1.O=C(O)CCC(=O)O` (stereo in doubt; 19 (+)) the value was 23000 nM; for `CC(=O)O.CCCCCCCCCCC#Cc1cccc([C@@H](O)[C@@H](N)CO)c1` (stereo in doubt; 10 (-)), 21800 nM.
`CCCCCCCCCCC#Cc1csc([C@@H](O)[C@@H](N)CO)c1.Cl` (stereo in doubt; 19a): the IC50 came to 23000 nM.
Compound `CCCCCCCCCCC#Cc1csc([C@@H](O)[C@@H](N)CO)c1.Cl` (stereo in doubt; 3a (+/-)) yielded an IC50 of 28800 nM.
The same measure, in the same setting: for `CCCCCCCCCCC#Cc1csc([C@@H](O)[C@@H](N)CO)c1.O=C(O)CCC(=O)O` (stereo in doubt; 18 (-)) the value was 20100 nM; for `CCCCCCCCCCC#Cc1csc([C@@H](O)[C@@H](N)CO)c1.Cl` (stereo in doubt; 18a), 20100 nM; for `CC(=O)O.CCCCCCCCCCC#Cc1cccc([C@@H](O)[C@@H](N)CO)c1` (stereo in doubt; 11(+)), 19500 nM.

The species entered for the next assay is Canis familiaris. The assay is described as follows: Inhibition of PKC-dependent neutrophil superoxide burst in dogs. In kind it is functional, Canis lupus familiaris.
Details: not given
Regarding `CC(=O)O.CCCCCCCCCCC#Cc1ccc([C@@H](O)[C@@H](N)CO)s1` (racemic), the negative-log IC50 (pIC50) is 5.82.
The same measure, in the same setting: the value for `CCCCCCCCCCC#Cc1csc([C@@H](O)[C@@H](N)CO)c1.O=C(O)CCC(=O)O` (stereo in doubt; 19 (+)) was 6.00; that for `CC(=O)O.CCCCCCCCCCC#Cc1cccc([C@@H](O)[C@@H](N)CO)c1` (stereo in doubt; 10 (-)) was 5.66.
Same read-out and setting: for `CCCCCCCCCCC#Cc1csc([C@@H](O)[C@@H](N)CO)c1` (racemic) the value was 5.82.

The same assay, now with this note: Canis lupus familiaris.
On to `CC(=O)O.CCCCCCCCCCC#Cc1ccc([C@@H](O)[C@@H](N)CO)s1`, for which the negative logarithm of the IC50 (pIC50) was 5.74.
Still for that read-out and setting: the value for `CCCCCCCCCCC#Cc1csc([C@@H](O)[C@@H](N)CO)c1.O=C(O)CCC(=O)O` (stereo in doubt; 18 (-)) was 5.89; that for `CCCCCCCCCCCCC/C=C/[C@@H](O)[C@@H](N)CO` [SPHINGOSINE] was 5.38; that for `CC(=O)O.CCCCCCCCCCC#Cc1cccc([C@@H](O)[C@@H](N)CO)c1` (racemic) was 5.62.

A further assay is filed under the species Mus musculus. The assay is described as follows: Anti-inflammatory activity on the mice ears using antiinflammatory assay (TPAEE). In kind it is functional.
Details: not given
`CC(=O)O.CCCCCCCCCCC#Cc1ccc([C@@H](O)[C@@H](N)CO)s1` (racemic) gave an ED50 of 0.24 mg ear-1.
Take `CCCCCCCCCCC#Cc1csc([C@@H](O)[C@@H](N)CO)c1.Cl` (stereo in doubt; 3a (+/-)): the ED50 is 0.23 mg ear-1.
The same measure, in the same setting: the value for `CCCCCCCCCCCCC/C=C/[C@@H](O)[C@@H](N)CO` [SPHINGOSINE] was 0.31 mg ear-1.
Consider `CC(=O)O.CCCCCCCCCCC#Cc1cccc([C@@H](O)[C@@H](N)CO)c1` (racemic), for which the ED50 was determined as 0.34 mg ear-1.

For a further assay, the species on record is Mus musculus. The assay is described as follows: Percent change in punch weights [right ear(received drug) -left ear(received vehicle)] was determined in mice at a dose of 1 mg/ear. In kind it is functional.
Details: not given
Consider `CC(=O)O.CCCCCCCCCCC#Cc1ccc([C@@H](O)[C@@H](N)CO)s1`, for which the Change is -81%.
Regarding `CCCCCCCCCCC#Cc1csc([C@@H](O)[C@@H](N)CO)c1.O=C(O)CCC(=O)O` (stereo in doubt; 19 (+)), the Change was -63%.
As for `CC(=O)O.CCCCCCCCCCC#Cc1cccc([C@@H](O)[C@@H](N)CO)c1` (stereo in doubt; 10 (-)), the Change is on record as -74%.
Turning to `CCCCCCCCCCC#Cc1csc([C@@H](O)[C@@H](N)CO)c1.Cl` (stereo in doubt; 3a (+/-)), the Change is listed as -81%.
On the same count and under the same terms, the value for `CCCCCCCCCCC#Cc1csc([C@@H](O)[C@@H](N)CO)c1.O=C(O)CCC(=O)O` (stereo in doubt; 18 (-)) was -73%; that for `CCCCCCCCCCCCC/C=C/[C@@H](O)[C@@H](N)CO` [SPHINGOSINE] was -74%; that for `CC(=O)O.CCCCCCCCCCC#Cc1cccc([C@@H](O)[C@@H](N)CO)c1` (racemic) was -82%.
